# System: MC38_sgStk11 tumor
# Assay: Anti-tumor efficacy in murine subcutaneous MC38_sgStk11 tumor model
# Type: in vivo, Mus musculus
# Details: for T/C / TGI %: day 11
# Protocol: Summary: An in vivo anti-tumor efficacy of double combination treatment of Anti-PD1 and HDAC1,2-selective inhibitor in a murine subcutaneous MC38_sgStk11 tumor model in […] mice was performed.
# 96 mice plus 39 spare mice of the species: Mus musculus: strain: C57BL/6; age 8-10 weeks; sex: female; and body weight: 16.9-20.0 g
# The MC38_sgStk11 tumor cells were maintained in vitro as a monolayer culture in DMEM+2 mM glutamine supplemented with about 10% heat inactivated fetal bovine serum, about 100 U/ml penicillin and 100 μg/ml streptomycin at about 37° C. in an atmosphere of about 5% CO2 in air. The tumor cells were routinely sub-cultured twice weekly by trypsin-EDTA treatment. The cells growing in an exponential growth phase were harvested and counted for tumor inoculation.
# Each mouse was inoculated subcutaneously at the right upper flank with MC38_sgStk11 tumor cells (0.5×106) in 0.1 ml of PBS for tumor development. Treatments were started on day 4 after tumor inoculation when the average tumor size reached 52 mm^3. The animals were assigned into groups according to a sorting standard operating procedures based upon their tumor volumes. Each group consisted of 8 tumor bearing mice. The testing article was administrated to the mice according to the predetermined regimen as shown in the experimental design table (Table 1-1).
# All the procedures related to animal handling, care and the treatment in the study were performed according to the guidelines approved by the Institutional Animal Care and Use Committee (IACUC) of vendor following the guidance of the Association for Assessment and Accreditation of Laboratory Animal Care (AAALAC). At the time of routine monitoring, the animals were daily checked for any effects of tumor growth and treatments on normal behavior such as mobility, food and water consumption, body weight gain/loss (body weights were measured three times per week), eye/hair matting and any other abnormal effect as stated in the protocol. Death and observed clinical signs were recorded on the basis of the numbers of animals within each subset.
# A primary endpoint was to see if the tumor growth could be delayed or mice could be cured. Tumor size was measured three times per week in two dimensions using a caliper, and the volume was expressed in mm3 using the formula: V=0.5 a×b2 where a and b are the long and short diameters of the tumor, respectively. The T/C value (in percent) is an indication of antitumor effectiveness; T and C are the mean volume of the treated and control groups, respectively, on a given day. TGI is calculated for each group using the formula: TGI (%)=[1−(Ti−T0)/(Vi−V0)]×100; Ti is the average tumor volume of a treatment group on a given day, T0 is the average tumor volume of the treatment group on the day of treatment start, Vi is the average tumor volume of the vehicle control group on the same day with Ti, and V0 is the average tumor volume of the vehicle group on the day of treatment start.
# Statistical analysis of difference in the tumor volume among the groups were conducted on the data obtained at the best therapeutic time point at the day 11 after the start of treatment. A one-way ANOVA was performed for comparisons between groups. The survival analysis between groups was carried out with Kaplan-Meier test. p<0.05 was considered to be statistically significant.
# [1] = Gr 2: Compound I 3 mg/kg PO QD + Anti-IgG2a 10 mg/kg IP BIW
# [2] = Gr 3: Compound I 10 mg/kg PO QD + Anti-IgG2a 10 mg/kg IP BIW
# [3] = Gr 4: Compound I 30 mg/kg PO QD + Anti-IgG2a 10 mg/kg IP BIW
# [4] = Gr 5: Compound I 75 mg/kg PO QD + Anti-IgG2a 10 mg/kg IP BIW
compound,measurement,setting,value
"C[S@@](=N)(=O)c1ccc(C(=O)Nc2cc(-c3ccc(F)cc3)ccc2N)cc1 [Compound I, (R)—N-(4-amino-4′-fluoro-[1,1′-biphenyl]-3-yl)-4-(S-methylsulfonimidoyl)benzamide]",CR (complete regression),[1],0.0%
same,ORR (CR + PR),[1],0.0%
same,PR (partial regression),[1],0.0%
same,Tumor Volume,"Gr 2: Compound I 3 mg/kg PO QD + Anti-IgG2a 10 mg/kg IP BIW, day 0 of treatment",52 ± 2 mm^3
same,Tumor Volume,"Gr 2: Compound I 3 mg/kg PO QD + Anti-IgG2a 10 mg/kg IP BIW, day 2 of treatment",208 ± 6 mm^3
same,Tumor Volume,"Gr 2: Compound I 3 mg/kg PO QD + Anti-IgG2a 10 mg/kg IP BIW, day 4 of treatment",489 ± 23 mm^3
same,Tumor Volume,"Gr 2: Compound I 3 mg/kg PO QD + Anti-IgG2a 10 mg/kg IP BIW, day 7 of treatment",925 ± 98 mm^3
same,Tumor Volume,"Gr 2: Compound I 3 mg/kg PO QD + Anti-IgG2a 10 mg/kg IP BIW, day 9 of treatment",1439 ± 130 mm^3
same,T/C,[1],98.7%
same,TGI %,[1],1.3%
same,Tumor Volume,"Gr 2: Compound I 3 mg/kg PO QD + Anti-IgG2a 10 mg/kg IP BIW, day 11 of treatment",2105 ± 184 mm^3
same,Tumor Volume,"Gr 2: Compound I 3 mg/kg PO QD + Anti-IgG2a 10 mg/kg IP BIW, day 14 of treatment",2876 ± 196 mm^3
same,Tumor Volume,"Gr 2: Compound I 3 mg/kg PO QD + Anti-IgG2a 10 mg/kg IP BIW, day 16 of treatment",3215 ± 79 mm^3
same,CR (complete regression),[2],0.0%
same,ORR (CR + PR),[2],0.0%
same,PR (partial regression),[2],0.0%
same,Tumor Volume,"Gr 3: Compound I 10 mg/kg PO QD + Anti-IgG2a 10 mg/kg IP BIW, day 0 of treatment",52 ± 2 mm^3
same,Tumor Volume,"Gr 3: Compound I 10 mg/kg PO QD + Anti-IgG2a 10 mg/kg IP BIW, day 2 of treatment",213 ± 10 mm^3
same,Tumor Volume,"Gr 3: Compound I 10 mg/kg PO QD + Anti-IgG2a 10 mg/kg IP BIW, day 4 of treatment",473 ± 38 mm^3
same,Tumor Volume,"Gr 3: Compound I 10 mg/kg PO QD + Anti-IgG2a 10 mg/kg IP BIW, day 7 of treatment",735 ± 82 mm^3
same,Tumor Volume,"Gr 3: Compound I 10 mg/kg PO QD + Anti-IgG2a 10 mg/kg IP BIW, day 9 of treatment",1059 ± 167 mm^3
same,T/C,[2],65.8%
same,TGI %,[2],35.0%
same,Tumor Volume,"Gr 3: Compound I 10 mg/kg PO QD + Anti-IgG2a 10 mg/kg IP BIW, day 11 of treatment",1403 ± 270 mm^3
same,Tumor Volume,"Gr 3: Compound I 10 mg/kg PO QD + Anti-IgG2a 10 mg/kg IP BIW, day 14 of treatment",1923 ± 343 mm^3
same,Tumor Volume,"Gr 3: Compound I 10 mg/kg PO QD + Anti-IgG2a 10 mg/kg IP BIW, day 16 of treatment",2101 ± 176 mm^3
same,Tumor Volume,"Gr 3: Compound I 10 mg/kg PO QD + Anti-IgG2a 10 mg/kg IP BIW, day 18 of treatment",2570 ± 205 mm^3
same,Tumor Volume,"Gr 3: Compound I 10 mg/kg PO QD + Anti-IgG2a 10 mg/kg IP BIW, day 21 of treatment",3275 ± 64 mm^3
same,CR (complete regression),[3],0.0%
same,ORR (CR + PR),[3],0.0%
same,PR (partial regression),[3],0.0%
same,Tumor Volume,"Gr 4: Compound I 30 mg/kg PO QD + Anti-IgG2a 10 mg/kg IP BIW, day 0 of treatment",52 ± 2 mm^3
same,Tumor Volume,"Gr 4: Compound I 30 mg/kg PO QD + Anti-IgG2a 10 mg/kg IP BIW, day 2 of treatment",212 ± 14 mm^3
same,Tumor Volume,"Gr 4: Compound I 30 mg/kg PO QD + Anti-IgG2a 10 mg/kg IP BIW, day 4 of treatment",484 ± 37 mm^3
same,Tumor Volume,"Gr 4: Compound I 30 mg/kg PO QD + Anti-IgG2a 10 mg/kg IP BIW, day 7 of treatment",734 ± 64 mm^3
same,Tumor Volume,"Gr 4: Compound I 30 mg/kg PO QD + Anti-IgG2a 10 mg/kg IP BIW, day 9 of treatment",883 ± 84 mm^3
same,T/C,[3],49.5%
same,TGI %,[3],51.8%
same,Tumor Volume,"Gr 4: Compound I 30 mg/kg PO QD + Anti-IgG2a 10 mg/kg IP BIW, day 11 of treatment",1055 ± 101 mm^3
same,Tumor Volume,"Gr 4: Compound I 30 mg/kg PO QD + Anti-IgG2a 10 mg/kg IP BIW, day 14 of treatment",1481 ± 146 mm^3
same,Tumor Volume,"Gr 4: Compound I 30 mg/kg PO QD + Anti-IgG2a 10 mg/kg IP BIW, day 16 of treatment",1977 ± 272 mm^3
same,Tumor Volume,"Gr 4: Compound I 30 mg/kg PO QD + Anti-IgG2a 10 mg/kg IP BIW, day 18 of treatment",2344 ± 368 mm^3
same,Tumor Volume,"Gr 4: Compound I 30 mg/kg PO QD + Anti-IgG2a 10 mg/kg IP BIW, day 21 of treatment",2602 ± 361 mm^3
same,Tumor Volume,"Gr 4: Compound I 30 mg/kg PO QD + Anti-IgG2a 10 mg/kg IP BIW, day 23 of treatment",2794 ± 665 mm^3
same,Tumor Volume,"Gr 4: Compound I 30 mg/kg PO QD + Anti-IgG2a 10 mg/kg IP BIW, day 25 of treatment",1551 mm^3
same,Tumor Volume,"Gr 4: Compound I 30 mg/kg PO QD + Anti-IgG2a 10 mg/kg IP BIW, day 28 of treatment",2589 mm^3
same,Tumor Volume,"Gr 4: Compound I 30 mg/kg PO QD + Anti-IgG2a 10 mg/kg IP BIW, day 30 of treatment",3550 mm^3
same,CR (complete regression),[4],12.5%
same,ORR (CR + PR),[4],12.5%

# From patent US20260041653A1, “AN HDAC INHIBITOR FOR TREATING CANCER WITH A MODIFIED STK11 ACTIVITY OR EXPRESSION” (Tango Therapeutics, Inc., priority 2022, published 2026)
